This is an account of results in US20250346582A1, “SPLEEN TYROSINE KINASE INHIBITORS AND METHODS OF USE THEREOF” (THE BOARD OF TRUSTEES OF THE UNIVERSITY OF ILLINOIS, priority 2022, published 2025).

In assay [1] the test system is plasma membrane translocation of EGFP-Syk WT. Briefly: Subcellular localization of EGFP-Syk WT in DT40 cells. It counts as cell-based, chicken. To be noted: IgM stimulation. As to the method:
DT40-Syk^−/− cells transfected with EGFP-Syk WT (or K220/K222A) and mCherry-mCherry-eMyoX-tPH were imaged under 100× magnification with a Nikon Eclipse Ti2 microscope using the NIS element software. For IgM stimulation, cells were dropped on the IgM-coated surface (10 ng/ml) covered with the imaging buffer (HBSS pH 7.4, 2 mM MgCl2, 1% FBS) and incubated for 10 min before imaging. Pearson's correlation coefficient (y) was calculated using Coloc 2, which is a Fiji's plugin for colocalization analysis. The plasma membrane was selected as the region of interest for calculation of the coefficient. Averages ±s.d.'s of γ values were calculated from triplicate determinations.

The target in a further assay is T1, Syk-cSH2 (Homo sapiens, UniProt P43405).
T1 construct: polyhistidine (N); made in house; host or cells: Escherichia coli BL21 (DE3) pLysS
Briefly: Fluorescence quenching vesicle binding assay, Syk-cSH2. Particulars: Table 2; Syk-cSH2 binding to POPC/POPS/PIP3/dabsyl-PE vesicles. As to the method:
(§1) The membrane-binding assay is based on fluorescence quenching of EGFP fused to a SH2 domain by a dark quencher containing lipid, dabsyl-PE, incorporated in lipid vesicles. The plate reader assay was performed using the Synergy™ Neo spectrofluorometer at 25° C. Nontreated black polystyrene 96-well plates (Corning) were used. Protein (10-50 nM) with the increasing concentration of vesicles with a given lipid composition in 20 mM Tris buffer, pH 7.4, containing 0.16 M NaCl was added to each row of wells and the EGFP fluorescence emission at 516 nm was measured with excitation set at 485 nm. Z′ factor for the assay system was determined as described^74. Imax and IC50 values of inhibitors were determined using the equation, I=Imax/(1+IC50/[I]) where I and [I] indicate % inhibition and inhibitor concentration, respectively. The average and standard deviation values were obtained from triplicate determinations.
(§2) We also optimized a recently developed fluorescence quenching-based lipid-binding assay^47 for high-throughput screening of these molecules for their inhibitory activity against the PIP3-SH2 interaction. Specifically, we expressed SH2 domains as EGFP-tagged proteins and directly quantified their membrane binding by monitoring the quenching of EGFP fluorescence emission intensity by a dark quencher-containing lipid, N-dimethylaminoazo-benzenesulfonyl-phosphatidylethanolamine (dabsyl-PE), incorporated in the vesicles. We then screened for compounds that inhibited binding of Syk-cSH2, BLNK-SH2, and PLCγ2-cSH2, respectively, to 1-palmitoyl-2-oleoyl-PC (POPC)/1-palmitoyl-2-oleoyl-PS (POPS)/PIP3/dabsyl-PE (67:20:3:10) vesicles while eliminating those that inhibit their non-specific binding to anionic POPC/POPS/dabsyl-PE (70:20:10) vesicles. The quality of the screening system was evaluated using 1% dimethylsulfoxide (DMSO) and 20 μM D-myo-inositol-1,3,4,5-tetraphosphate (IP4) as negative and positive controls, respectively. The clear separation of positive and negative control data and the average Z′-factor of 0.7 supported the robustness of our system for high-throughput screen of PIP3-SH2 interaction inhibitors.

A further assay concerns the target T2, PLCγ2-cSH2 (Homo sapiens, UniProt P16885).
T2 construct: polyhistidine (N); made in house; host or cells: Escherichia coli BL21 (DE3) pLysS
T2 sequence (P16885 646-735 limits assumed): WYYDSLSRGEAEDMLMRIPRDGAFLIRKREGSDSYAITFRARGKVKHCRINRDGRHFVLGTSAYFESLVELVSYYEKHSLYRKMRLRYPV
Kind of assay: Fluorescence quenching vesicle binding assay, PLCγ2-cSH2. Particulars: Table 2; PLCγ2-cSH2 binding to POPC/POPS/PIP3/dabsyl-PE vesicles; read-out: Imax (%). Here is the method: as §1, §2

The next assay addresses T3, BLNK-SH2 (Homo sapiens, UniProt Q8WV28).
T3 construct: All SH2 domain constructs were cloned into the pRSET-B vector; polyhistidine (N); made in house; host or cells: Escherichia coli BL21 (DE3) pLysS
T3 sequence (Q8WV28 346-453 limits assumed): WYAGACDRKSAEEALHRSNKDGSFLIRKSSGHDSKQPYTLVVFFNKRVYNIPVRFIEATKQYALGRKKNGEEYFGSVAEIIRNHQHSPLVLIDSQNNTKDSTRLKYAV
Briefly: Fluorescence quenching vesicle binding assay, BLNK-SH2. To be noted: Table 2, BLNK-SH2 binding to POPC/POPS/PIP3/dabsyl-PE vesicles. As to the method: as §1, §2

The test system of assay [2] is BCR signaling axis (Syk-BLNK-PLCγ2). Briefly: Western blot of BCR signaling axis in Raji B lymphocytes. To be noted: Raji B cells. The format is cell-based. As to the method:
(§3) Cells were seeded at a density of 3.0×10^5 cells/well prior to incubation with inhibitors. Cells were incubated with 1-5 μM of Syk inhibitors overnight and stimulated with different antibodies: IgG2 for AML cells, IgM for Raji B cells, and OKT3 (Biolegend) for Jurkat cells. The cells were lysed in NP40 lysis buffer (50 mM Tris, pH 7.5, 150 mM NaCl, 1 mM EDTA, 1% NP40, 10% glycerol, 10 mM NaF, 10 mM Na3VO4, and the protease inhibitor cocktail) at 4° C. and the cell debris was removed by centrifugation. Samples were analyzed by SDS-PAGE. Proteins were separated and transferred to Immobilon-P polyvinylidene difluoride membrane (Millipore Sigma). The membrane was blocked with 5% bovine serum albumin for 1 h and incubated overnight at 4° C. with various antibodies (1:1000 dilution for all antibodies). After the unbound antibodies were removed by washing with 0.1% Tris buffer saline with 0.1% Tween20, the membranes were incubated with the horseradish peroxidase secondary antibody (1:5000 dilution) for 1 h at room temperature. The membranes were washed three more times with 0.1% Tris buffer saline with 0.1% Tween20 to remove the unbound horseradish peroxidase secondary antibody before imaging. The chemiluminescence intensity of protein bands in the gel was analyzed and documented by the Azure 500Q Imaging System.

The target of assay [3] is T4, Syk (Homo sapiens, UniProt P43405).
T4 construct: host or cells: MV4-11 AML cells (naive and entospletinib-resistant)
Briefly: Streptavidin pull down assay with WC36B in MV4-11 cells. The format is cell-based. Particulars: MV4-11 cells, 5 μM for 24 h, immunoblotting. Here is the method:
(§4) Streptavidin-coated beads (Dynabeads™ M280 streptavidin beads; ThermoFisher) were washed twice with 1 ml of PBST (PBS+0.1% Tween 20) and resuspended in 100 μl of PBST. WC36B (or biotin) (10 mM) was added to 100 μl of the bead suspension and the mixture was incubated at room temperature for 15 min with gentle shaking. The mixture was then vortexed for 5 s and the tube was placed on a magnet for 1 min. After discarding the supernatant, the beads were resuspended in the same volume of the washing buffer. Washing is repeated three times to remove excess WC36B. WC36B-coated beads were then incubated with the cell lysate (MV-4-11) for 30 min at room temperature with gentle shaking. Protein-coated beads were separated with a magnet for 2-3 min and washed 4-5 times with PBS containing 0.1% BSA. The protein was then removed from the beads by boiling the beads in the SDS-polyacrylamide gel electrophoresis (PAGE) application buffer. Samples were concentrated for the mass spectrometry analysis and the western blot assay.
(In general: In western blotting, separated proteins are transferred to a membrane and probed.)

Assay [4] has as its target T4, Syk. Kind of assay: Mass spectrometry proteomics of WC36B-binding cellular proteins. Particulars: biotin as negative control. The format is cell-based. Here is the method:
as §4
MS analysis was performed to identify proteins captured by WC36B and biotin. […]

For a further assay, the system named is MV4-11 cells. Kind of assay: Generation of drug-resistant MV4-11 cells under chronic treatment. To be noted: inhibitor increased from 0.5 to 5 μM over 10 weeks. The format is cell-based. Here is the method: (§5) Then the concentration was maintained at 5 μM.
Assay [5] relates to phosphorylation of ERK1/2 and STAT3/5. Kind of assay: Western blot of phosphorylation in HL60 cells. It counts as cell-based. Particulars: RAS-mutated HL60 cells; 5 μM. Here is the method: FIGS. 3A-3D show the inhibition of the signaling activity and proliferation of HL-60 AML cells by Syk-cSH2 inhibitors. […] DMSO was used as a negative control and GAPDH as a gel loading control. […] (c) Inhibition of phosphorylation of Syk, STAT3/5 and ERK1/2 in patient-derived primary AML cells by WC36. Cells were cultured overnight in the presence of CD34+ cytokine supplement. DMSO was used as a negative control. Representative data from one (Patient 1) of four patient samples are shown here. (d) Inhibition of the proliferation of four patient AML cells by WC36 measured by the colony growth assay. The number of colonies after WC36 treatment was normalized to the enumerated colonies after DMSO treatment.
as §3

A further assay concerns the target T5, pZAP70 (Homo sapiens, UniProt P43403).
T5 construct: host or cells: Jurkat T cells, OKT3-stimulated
T5 sequence (P43403 1-619): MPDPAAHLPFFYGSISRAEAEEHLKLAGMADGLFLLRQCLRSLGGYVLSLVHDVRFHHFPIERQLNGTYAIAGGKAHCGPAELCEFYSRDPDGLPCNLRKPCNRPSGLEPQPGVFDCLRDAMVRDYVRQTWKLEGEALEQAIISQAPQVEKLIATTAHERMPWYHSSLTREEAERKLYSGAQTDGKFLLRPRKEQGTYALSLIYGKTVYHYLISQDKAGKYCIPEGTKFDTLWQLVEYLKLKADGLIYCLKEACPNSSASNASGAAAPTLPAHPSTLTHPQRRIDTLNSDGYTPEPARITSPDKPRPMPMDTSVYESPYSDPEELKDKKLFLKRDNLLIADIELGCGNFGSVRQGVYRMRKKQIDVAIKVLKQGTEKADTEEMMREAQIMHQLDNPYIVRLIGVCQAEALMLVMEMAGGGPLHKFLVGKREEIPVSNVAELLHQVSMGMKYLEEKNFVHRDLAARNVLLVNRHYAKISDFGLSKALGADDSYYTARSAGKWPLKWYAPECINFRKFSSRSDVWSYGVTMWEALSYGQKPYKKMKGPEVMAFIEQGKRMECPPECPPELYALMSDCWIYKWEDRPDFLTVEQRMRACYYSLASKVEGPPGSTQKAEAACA
Kind of assay: Western blot inhibition of ZAP70 phosphorylation in Jurkat T cells. It counts as cell-based. To be noted: Jurkat T cells stimulated by OKT3; 5 μM overnight. As to the method: (a) Cellular efficacy of WC35, WC36, and WC38 was determined by dose-dependent inhibition of Syk phosphorylation in Raji B cells. (b) Imax and IC50 values were determined by non-linear least-squares analysis of data using the equation: […] Each data represents average ±s.d. from triplicate measurements. […] Jurkat T cells were stimulated by OKT3. Cells were seeded at a density of 3.0×10^5 cells/well prior to incubation with inhibitors. […] IgG2 for AML cells, IgM for Raji B cells, and OKT3 (Biolegend) for Jurkat cells. […] Samples were analyzed by SDS-PAGE. Proteins were separated and transferred to Immobilon-P polyvinylidene difluoride membrane (Millipore Sigma). […] The chemiluminescence intensity of protein bands in the gel was analyzed and documented by the Azure […] Imaging System.

The subject of assay [6] is phosphorylation of Syk, ERK1/2 and STAT3/5. Kind of assay: Western blot of phosphorylation in entospletinib-resistant MV4-11 cells. The format is cell-based. Particulars: 5 μM. Here is the method: as §3, §5

For the molecule `CS(=O)(=O)N1CCN(Cc2cc3nc(-c4cccc5[nH]ncc45)nc(N4CCOCC4)c3s2)CC1` [GDC-0941], the “plasma membrane translocation of EGFP-Syk WT” value in assay [1] is reported as “greatly suppressed”.
The term IC50 denotes the point on the concentration scale where inhibition reaches its midpoint. Take `OCCc1c(Cl)cncc1I` [VG594]: the “Imax (%)” value at Syk-cSH2 is reported as under 10%. Also, the Emax was under 10% at PLCγ2-cSH2 and 40 to 50% on BLNK-SH2 (read-out: Imax (%)). Also, the IC50 on BLNK-SH2 turned out to be 400 ± 30 nM. Further, in assay [2], the “effect on phosphorylation of BCR signaling proteins (Syk, BLNK, PLCγ2)” value was “blocked the phosphorylation of BLNK and PLCγ2 without a significant effect on Syk phosphorylation”.
In the case of `[N-]=[N+]=C(C(=O)NCCNC(=O)CCCC[C@H]1SC[C@H]2NC(=O)N[C@H]21)C(Nc1ncccn1)c1c[nH]c2ccccc12` (stereo partly drawn) [WC36B, N-(2-(2-diazo-3-(1H-indol-3-yl)-3-(pyrimidin-2-ylamino)propanamido)ethyl)-5-((3aR,4R,6aS)-2-oxohexahydro-1H-thieno[3,4d]imidazol-4-yl)pentanamide], the “capture of Syk by streptavidin pulldown” value at Syk [3] is listed as “targets Syk in MV4-11 cells”. Moreover, the “proteins captured (proteomics)” value at Syk [4] is “Syk is the single major protein that is captured by the WC36 pharmacophore”.
As to `c1cn2cc(-c3ccc4cn[nH]c4c3)nc(Nc3ccc(N4CCOCC4)cc3)c2n1` [entospletinib, reference compound], the “development of acquired resistance” value in the assay with MV4-11 cells is reported as “readily developing resistance to entospletinib”. Besides, the “inhibition of phosphorylation of ERK1/2 and STAT3/5” value in assay [5] is “could not suppress phosphorylation of ERK1/2 and STAT3/5”. At pZAP70, the “inhibition of ZAP-70 phosphorylation” value is recorded as “significantly inhibited ZAP-70 phosphorylation”. Further, the “inhibition of phosphorylation of Syk, ERK1/2 and STAT3/5” value in [6] is “could not inhibit phosphorylation of ERK1/2 and STAT3/5 in resistant MV4-11 cells while still potently inhibiting Syk phosphorylation”.
